Data: ChEMBL document CHEMBL1201862, “PubChem BioAssay data set” (2004)
Active and inactive are the calls of the source.

What was measured:
[1] = biological target: Heat shock protein HSP 90-alpha (Homo sapiens, UniProt P07900); assay type: functional, organism-based
[2] = HepG2 cell cytotoxicity, dose response, cytotoxicity control for non-replicating M. tuberculosis project (AID 489018); assay type: functional; settings: Mycobacterium tuberculosis
Paired box protein Pax-8 = Paired box protein Pax-8 (Homo sapiens, UniProt Q06710); test: inhibitors of PAX8-driven TPO luciferase reporter, dose response, RMG-I cells, cherry-pick (AID 687027); assay type: functional, cell-based;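 further: luciferase reporter driven by Pax8 target thyroperoxidase promoter measured by SteadyGlo luminescence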
INS1 = test: beta cell apoptosis inhibitors, cytokine rescue, dose response, luminescence, retest (AID 449756); assay type: functional, cell-based; settings: Rattus norvegicus;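 further: cell death triggered by IL-1 beta plus TNF-alpha plus IFN-gamma mixture; protective hits raise ATP signal compared with cytokine alone wells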
[3] = biological target: Type-1 angiotensin II receptor (Homo sapiens, UniProt P30556); test: AT1 receptor antagonists, dose response, selectivity assay for APJ receptor antagonist project, cell-based, uHTS hits (AID 463214); assay type: functional;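 further: antagonist potency against angiotensin II stimulated AT1 response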
[4] = Vero E6 cell cytotoxicity, dose response, cytotoxicity control for non-replicating M. tuberculosis project, secondary assay (AID 492998); assay type: functional, VeroE6; settings: Vero C1008
[5] = THP-1 cell cytotoxicity, dose response, cytotoxicity control for non-replicating M. tuberculosis project (AID 489025); assay type: functional
CHO = test: cytotoxicity in TLR9-MyD88 CHO cells, dose response, cytotoxicity control for TLR9-MyD88 binding inhibitor project, cell-based, luminescence (AID 588339); assay type: functional, hamster; settings: Cricetulus griseus;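 further: CHO cells stably coexpressing TLR9 and MyD88 fusions from primary screen; compound exposure lasted 48 hours before viability readout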
[6] = Fluorescence-based cell-based high throughput dose response assay for inhibitors of the interaction of nucleotide-binding oligomerization domain containing 2 (NOD2) and the receptor-interacting serine-threonine kinase 2 (RIPK2).; assay type: functional; settings: Homo sapiens
Beta Lactamase = Beta Lactamase (Pseudomonas aeruginosa, UniProt Q932Y6); test: beta-lactamase reporter inhibitor potency, dose response, artefact control for TLR9-MyD88 binding inhibitor project, BLA reporter cells, FRET fluorescence (AID 588341); assay type: cell-based;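 further: cell based assay in CHO-K1 cells stably expressing beta-lactamase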
[7] = non-specific cell cytotoxicity, dose response, cytotoxicity control for PAX8 inhibitor project, plate reader, dry powder samples (AID 743021); assay type: functional, cell-based
[8] = biological target: T1, Heat shock factor protein 1 (Mus musculus, UniProt P38532); test: inhibition of MG132-induced HSE-luciferase signal, confirmation, cell-based, NIH3T3, luminescence, dose retest (AID 2382); assay type: functional;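 further: NIH3T3 fibroblasts with HSF1-driven luciferase reporter stressed by proteasome inhibitor MG132; luminescence from HSF1-driven luciferase expression after 8 hours of MG132 stress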
T1 sequence (P38532 whole entry): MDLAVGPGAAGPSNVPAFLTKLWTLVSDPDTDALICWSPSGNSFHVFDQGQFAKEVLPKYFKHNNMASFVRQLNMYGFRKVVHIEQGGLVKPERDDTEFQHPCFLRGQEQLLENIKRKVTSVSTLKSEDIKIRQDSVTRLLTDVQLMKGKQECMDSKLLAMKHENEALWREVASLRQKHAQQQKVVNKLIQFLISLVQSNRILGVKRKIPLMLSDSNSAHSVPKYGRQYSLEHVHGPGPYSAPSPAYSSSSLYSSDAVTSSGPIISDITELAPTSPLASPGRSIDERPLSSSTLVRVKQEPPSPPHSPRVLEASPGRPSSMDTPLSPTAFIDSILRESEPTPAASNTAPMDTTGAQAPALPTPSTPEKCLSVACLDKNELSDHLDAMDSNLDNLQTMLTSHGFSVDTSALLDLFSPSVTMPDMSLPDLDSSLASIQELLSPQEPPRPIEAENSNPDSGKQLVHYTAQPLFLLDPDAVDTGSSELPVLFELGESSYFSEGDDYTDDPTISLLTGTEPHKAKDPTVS

cells = assay type: functional
Beta-galactosidase = Beta-galactosidase (Escherichia coli, UniProt Q8VNN2); test: PubChem AID 485352; assay type: functional
Chain of Beta-galactosidase (Q8VNN2 whole entry): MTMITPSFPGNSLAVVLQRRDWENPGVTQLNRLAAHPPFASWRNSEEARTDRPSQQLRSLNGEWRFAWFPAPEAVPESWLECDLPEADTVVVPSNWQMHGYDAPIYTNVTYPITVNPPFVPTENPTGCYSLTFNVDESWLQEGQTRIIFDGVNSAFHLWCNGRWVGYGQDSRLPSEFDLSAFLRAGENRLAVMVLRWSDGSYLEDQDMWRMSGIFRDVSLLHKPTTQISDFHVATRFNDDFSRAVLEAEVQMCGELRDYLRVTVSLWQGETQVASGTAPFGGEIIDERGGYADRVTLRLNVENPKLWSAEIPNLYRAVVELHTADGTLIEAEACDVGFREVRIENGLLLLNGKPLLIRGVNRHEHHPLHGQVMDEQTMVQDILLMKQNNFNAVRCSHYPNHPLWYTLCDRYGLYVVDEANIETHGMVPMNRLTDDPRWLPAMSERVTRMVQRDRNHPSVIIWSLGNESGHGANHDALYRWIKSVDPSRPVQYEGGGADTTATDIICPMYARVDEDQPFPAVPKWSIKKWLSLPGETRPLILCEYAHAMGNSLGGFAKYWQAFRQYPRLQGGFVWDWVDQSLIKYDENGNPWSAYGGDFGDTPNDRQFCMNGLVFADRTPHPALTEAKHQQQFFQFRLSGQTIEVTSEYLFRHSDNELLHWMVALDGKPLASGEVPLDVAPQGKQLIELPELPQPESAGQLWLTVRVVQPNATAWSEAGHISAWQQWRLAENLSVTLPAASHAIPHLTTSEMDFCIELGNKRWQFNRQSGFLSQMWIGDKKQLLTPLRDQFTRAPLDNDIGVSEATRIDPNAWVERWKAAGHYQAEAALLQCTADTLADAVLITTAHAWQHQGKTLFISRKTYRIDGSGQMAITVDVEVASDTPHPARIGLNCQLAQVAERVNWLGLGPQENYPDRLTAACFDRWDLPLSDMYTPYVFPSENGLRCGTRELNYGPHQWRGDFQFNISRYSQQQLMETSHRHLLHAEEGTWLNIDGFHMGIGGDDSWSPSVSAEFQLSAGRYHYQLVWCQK

Chain of Type-1 angiotensin II receptor (P30556 whole entry): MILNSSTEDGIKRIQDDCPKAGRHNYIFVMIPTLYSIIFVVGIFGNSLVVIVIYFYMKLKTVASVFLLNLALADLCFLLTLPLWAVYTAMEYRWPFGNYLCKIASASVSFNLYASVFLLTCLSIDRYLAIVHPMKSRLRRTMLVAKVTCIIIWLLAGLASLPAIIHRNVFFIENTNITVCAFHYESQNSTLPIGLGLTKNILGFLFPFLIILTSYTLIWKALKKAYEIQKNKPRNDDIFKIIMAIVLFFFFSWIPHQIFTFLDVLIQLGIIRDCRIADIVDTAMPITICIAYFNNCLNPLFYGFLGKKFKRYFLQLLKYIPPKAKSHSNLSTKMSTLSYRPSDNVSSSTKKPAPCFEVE
Chain of Paired box protein Pax-8 (Q06710 whole entry): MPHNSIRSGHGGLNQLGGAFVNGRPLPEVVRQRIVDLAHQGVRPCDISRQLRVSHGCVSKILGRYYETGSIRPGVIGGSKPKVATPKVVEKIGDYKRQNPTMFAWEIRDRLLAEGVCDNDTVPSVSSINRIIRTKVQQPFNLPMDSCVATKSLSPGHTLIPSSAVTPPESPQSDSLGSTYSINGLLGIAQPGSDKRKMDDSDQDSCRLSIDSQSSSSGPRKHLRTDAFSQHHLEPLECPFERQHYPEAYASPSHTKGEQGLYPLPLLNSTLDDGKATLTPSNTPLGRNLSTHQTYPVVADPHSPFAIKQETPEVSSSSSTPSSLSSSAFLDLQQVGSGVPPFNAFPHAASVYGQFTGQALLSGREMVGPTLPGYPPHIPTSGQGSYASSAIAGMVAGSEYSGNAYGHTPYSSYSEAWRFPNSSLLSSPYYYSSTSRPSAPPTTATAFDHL
Chain of Beta Lactamase (Q932Y6 whole entry): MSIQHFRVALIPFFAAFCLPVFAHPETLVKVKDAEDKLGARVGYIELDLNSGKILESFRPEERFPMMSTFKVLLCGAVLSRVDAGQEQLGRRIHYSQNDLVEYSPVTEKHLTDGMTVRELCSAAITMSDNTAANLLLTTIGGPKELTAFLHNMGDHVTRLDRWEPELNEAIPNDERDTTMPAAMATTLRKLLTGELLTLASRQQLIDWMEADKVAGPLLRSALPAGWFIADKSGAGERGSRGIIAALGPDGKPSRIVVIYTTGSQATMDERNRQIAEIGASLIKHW

O=C(C#Cc1ccccc1)c1ccco1
AC50 [1]: 3.05 µM (active)
CC50 [2]: 9.8 µM (active)
AC50 (Paired box protein Pax-8): 9.61 µM (active)
AC50 (INS1): 6.11 µM (active)
IC50 [3]: 8.43 µM (active)
CC50 [4]: 7.89 µM (active)
CC50 [5]: 11 µM (active)
IC50 (CHO): 1.82 µM (active)
IC50 [6]: 2.25 µM (active)
IC50 (Beta Lactamase): > 49.8 µM (inactive)
AC50 [7]: 23.7 µM (active)
EC50 [8]: 6.57 µM (active)
IC50 (cells): 1.32 µM (active)
EC50 (Beta-galactosidase): > 40 µM (inactive)
